Experiments:
[1] = in vitro; conditions: mouse, microsomes
[2] = in vitro; conditions: human, microsomes
[3] = in vivo; conditions: rat, iv, 1 mg/kg
[4] = in vivo; conditions: rat, iv, 1 mg/kg; remark: listed apart in the source
[5] = in vivo; conditions: rat, iv, 1 mg/kg; remark: listed apart in the source
[6] = in vivo; conditions: rat, po, 10 mg/kg
[7] = in vivo; conditions: rat, po, 10 mg/kg; remark: listed apart in the source
[8] = in vivo; conditions: rat, po, 10 mg/kg; remark: listed apart in the source
[9] = in vivo; conditions: rat, iv, 1 mg/kg; remark: listed apart in the source
[10] = in vivo; conditions: rat, po, 10 mg/kg; remark: listed apart in the source
[11] = in vitro; conditions: rat, liver microsomes
[12] = in vivo; conditions: rat, iv, 10 mg/kg

`CC(C)Oc1ccc(C2CC(c3ccc(CN4CCC(C(=O)O)CC4)cc3)=NO2)cc1Cl` (stereo not given) showed a remaining at 0.5 h, 1 µM [1] of 84.5% and a remaining at 0.5 h, 1 µM [2] of 73.5%.

In the case of `CC(C)(C)c1ccc(C2CC(c3ccc(CN4CC(C(=O)[O-])C4)cc3)=NO2)cc1.[Na+]` (stereo not given), the remaining at 0.5 h, 1 µM [1] is reported as 96.7%, the Vd [3] is reported as 2.6 L/kg and the half-life [4] is reported as 2.4 h. For the same compound, the clearance [5] was 13.1 mL/min/kg, the Cmax [6] was 1070 ng/mL and the remaining at 0.5 h, 1 µM [2] was 93.8%. It also gave a bioavailability [7] of 44.9%, a Tmax [8] of 2.3 h and an AUC(0-inf) [9] of 1160 ng·h/mL. The half-life [10] was 3.1 h, the remaining at 0.5 h, 1 µM [11] was 95.1% and the AUC(0-inf) [12] was 5190 ng·h/mL.

`COC(=O)C1CN(Cc2ccc(-n3cc(-c4ccc(OC(C)C)c(Cl)c4)nn3)cc2)C1` gave a remaining at 0.5 h, 1 µM [1] of 19% and a remaining at 0.5 h, 1 µM [2] of 23.2%.

For `CC(C)Oc1ccc(-n2cc(-c3ccc(CN4CC(C(=O)O)C4)cc3)nn2)cc1Cl`, the remaining at 0.5 h, 1 µM [1] was over 99% and the remaining at 0.5 h, 1 µM [2] was 98.5%.

`COC(=O)C1CN(Cc2ccc(-c3cn(-c4ccc(OC(C)C)c(Cl)c4)nn3)cc2)C1` showed a remaining at 0.5 h, 1 µM [1] of 28.8% and a remaining at 0.5 h, 1 µM [2] of 24.1%.

From ChEMBL document CHEMBL5154711, “Discovery of Novel Sphingosine-1-Phosphate-1 Receptor Agonists for the Treatment of Multiple Sclerosis” (J Med Chem, 2022)
